Among the test systems are M19-MEL; LXFL 529; XF498; DMS-273; KM-20L2; DMS-114; SNB-78; HOP-18; RXF 631.
Holding throughout (assay): DTP human tumour cell line panel, 48 h

Each structure is given as a SMILES string.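 Five compound concentrations were applied to cells in 96-well plates for 48 hours; endpoints were derived by simple linear interpolation of the resulting dose-response curve. The concentration for 50% growth inhibition is given as GI50.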 Active and inactive are the calls of the source. Rule as the data show it: active = GI50 up to about 1.1 µM and inactive = higher.

As for `CC(c1ccc2c(c1)CCC1C2CC2OC23CC=CC(=O)[C@]13C)C1C[C@]2(C)O[C@]2(C)[C@H](O)O1` (some centres not stated), the GI50 was 34.4 µM (inactive) with M19-MEL; 10.6 µM (inactive) in the assay with LXFL 529; 56.9 µM (inactive) in the assay on XF498; 21.7 µM (inactive) with DMS-273; 34.8 µM (inactive) in the assay with KM-20L2; 0.429 µM (active) in the assay on DMS-114.

On to `CC(=O)Oc1ccc2c(c1)C(=O)c1nc(C)c(C)nc1C2=O`, for which the GI50 with M19-MEL is 4.61 µM (inactive); in the assay with LXFL 529 it was > 51.8 µM (inactive); with SNB-78 it was 48.2 µM (inactive); in the assay on XF498 it was 43.9 µM (inactive); in the assay on HOP-18, > 83.2 µM (inactive); in the assay with RXF 631 it was 30.5 µM (inactive). Also, the GI50 in the assay on DMS-273 was > 73.8 µM (inactive); with KM-20L2, 34 µM (inactive); with DMS-114 it was 34.8 µM (inactive).

`Brc1ccc(-c2cc3c(cc2C2SCCS2)OCO3)cc1`: the GI50 was 41.7 µM (inactive) with M19-MEL; 25.4 µM (inactive) with LXFL 529; 11.4 µM (inactive) with SNB-78; 14.2 µM (inactive) in the assay on XF498; 49.4 µM (inactive) with HOP-18; 35.6 µM (inactive) in the assay on DMS-273. The GI50 is 26.7 µM (inactive) in the assay on KM-20L2 and 23.2 µM (inactive) in the assay with DMS-114.

Regarding `CN(C)CCn1cnc2ncccc2c1=O`, the GI50 in the assay with M19-MEL, with LXFL 529, with SNB-78, in the assay on XF498, in the assay on DMS-273 and in the assay with KM-20L2 was > 100 µM (inactive) in each case. Besides, the GI50 with DMS-114 was 53.1 µM (inactive).

As to `O=C1NC(=O)C2C1C1C=C3c4ccccc4N(c4ccccc4)C32[C@H]2C(=O)NC(=O)[C@@H]12` (some centres not stated), the GI50 in the assay with M19-MEL, in the assay with LXFL 529, in the assay on SNB-78, with HOP-18, with DMS-273 and with KM-20L2 was > 100 µM (inactive) each time. In the assay on DMS-114, the GI50 is > 100 µM (inactive).

For the compound `S=C1CNC(=S)CN1`, the GI50 in the assay with M19-MEL, with LXFL 529, in the assay on SNB-78, in the assay with HOP-18, with RXF 631 and in the assay with DMS-273 was > 100 µM (inactive) in each case. Moreover, the GI50 with KM-20L2 and in the assay on DMS-114 was > 100 µM (inactive) in each case.

`COc1cc(NS(C)(=O)=O)ccc1Nc1c2ccccc2nc2ccccc12` [AMSACRINE]: the GI50 with M19-MEL was 1.89 µM (inactive); in the assay on LXFL 529, 3.32 µM (inactive); in the assay with SNB-78 it was 3.97 µM (inactive); with HOP-18 it was 0.7 µM (active); with RXF 631, 0.509 µM (active); in the assay with DMS-273, 0.0659 µM (active). In addition, the GI50 was 1.45 µM (inactive) in the assay with KM-20L2 and 0.184 µM (active) in the assay with DMS-114.

As for `CCc1c(OC(C)=O)c2c(NC3OC(COC(C)=O)C(OC(C)=O)C(OC(C)=O)C3OC(C)=O)nc(SC)nc2oc1=O` (configuration not stated), the GI50 in the assay on M19-MEL, in the assay on LXFL 529, with SNB-78, in the assay with XF498, with HOP-18 and in the assay on RXF 631 was > 100 µM (inactive) in each case. In addition, the GI50 in the assay on KM-20L2 and in the assay on DMS-114 was > 100 µM (inactive) throughout.

In the case of `CC(C)=CC(=O)Cc1nc2ccc([N+](=O)[O-])cc2[nH]c1=O`, the GI50 with M19-MEL is > 100 µM (inactive); in the assay on LXFL 529 it was 53.7 µM (inactive); in the assay with SNB-78, > 100 µM (inactive); with XF498, 41.3 µM (inactive); in the assay on DMS-273, > 100 µM (inactive); in the assay on KM-20L2, > 100 µM (inactive). For the same compound, the GI50 with DMS-114 is 51.3 µM (inactive).

`Cn1c(=O)n(C2(C)CSC2)c2ccccc21`: the GI50 in the assay on M19-MEL, in the assay on LXFL 529, in the assay with XF498, in the assay with DMS-273, in the assay with KM-20L2 and in the assay on DMS-114 was > 100 µM (inactive) throughout.

Consider `Cc1ccc(S(=O)(=O)N/N=C/CN2C(=O)c3ccccc3C2=O)cc1`, for which the GI50 with M19-MEL, with LXFL 529, with XF498, in the assay with DMS-273, in the assay with KM-20L2 and in the assay with DMS-114 was > 100 µM (inactive) in each case.

Regarding `O=[N+]([O-])c1ccc(Cl)c(C2SCc3nc4ccccc4n32)c1` (configuration not stated), the GI50 was 29.6 µM (inactive) in the assay on M19-MEL; 34.8 µM (inactive) in the assay with LXFL 529; 34.6 µM (inactive) in the assay on SNB-78; 5.87 µM (inactive) in the assay on HOP-18; 22.9 µM (inactive) in the assay on DMS-273; 37 µM (inactive) with DMS-114.

As for `CNC(=O)C1CCc2nnc(-c3ccccc3)n21` (configuration not stated), the GI50 with M19-MEL, in the assay on LXFL 529, in the assay with SNB-78, in the assay on HOP-18, in the assay with RXF 631 and in the assay with DMS-273 was > 100 µM (inactive) throughout. Moreover, the GI50 in the assay with KM-20L2 and in the assay on DMS-114 was > 100 µM (inactive) each time.

Consider `CC(C)(C)C1=CC(CCC(=O)Nc2ccccc2[N+](=O)[O-])=NC(S)N1` (configuration not stated), for which the GI50 with M19-MEL, in the assay with LXFL 529, with SNB-78, in the assay with HOP-18, in the assay on RXF 631 and with KM-20L2 was > 100 µM (inactive) each time. Moreover, in the assay with DMS-114, the GI50 is > 100 µM (inactive).

Take `O=C(NC1CCCC1=O)c1ccccc1` (configuration not stated): the GI50 in the assay on M19-MEL, with SNB-78, in the assay on XF498, in the assay on RXF 631, with DMS-273 and in the assay with KM-20L2 was > 100 µM (inactive) in each case. For the same compound, in the assay with DMS-114, the GI50 was > 100 µM (inactive).

Turning to `COc1ccc(/C=C2\CCc3ccccc3C2=O)cc1OC`, the GI50 with M19-MEL is 30.1 µM (inactive); in the assay with LXFL 529 it was 25.7 µM (inactive); in the assay on SNB-78, 33.7 µM (inactive); with XF498, 17.7 µM (inactive); in the assay on HOP-18, 33 µM (inactive); in the assay on KM-20L2 it was 30.8 µM (inactive). Also, the GI50 with DMS-114 was 17.1 µM (inactive).

As to `NC(=O)N=C(N(Cc1ccccc1)Cc1ccccc1)N(Cc1ccccc1)Cc1ccccc1`, the GI50 with M19-MEL is > 100 µM (inactive); in the assay on LXFL 529 it was 4.8 µM (inactive); in the assay on SNB-78, 25.1 µM (inactive); with DMS-273, 3.41 µM (inactive); in the assay on KM-20L2, 2.69 µM (inactive).

For the compound `Nc1nc(=O)n([C@@H]2CC[C@H](CO)O2)cc1F`, the GI50 in the assay on LXFL 529, with SNB-78, in the assay on HOP-18, with DMS-273, in the assay with KM-20L2 and with DMS-114 was > 100 µM (inactive) each time.

As to `Cc1ccc(N2C(=O)/C(=C/c3ccc(N(CCC#N)CCC#N)cc3C)N=C2c2cc([N+](=O)[O-])ccc2Cl)cc1`, the GI50 in the assay on M19-MEL, with LXFL 529, in the assay with SNB-78, with HOP-18, in the assay on RXF 631 and in the assay on DMS-273 was > 100 µM (inactive) each time. Further, the GI50 in the assay on DMS-114 was 75.2 µM (inactive).

On to `O=C(O)c1cc(Cl)cc(NC(=O)C(Cl)Cl)c1Cl`, for which the GI50 in the assay on M19-MEL, with LXFL 529, in the assay with SNB-78, with XF498, with HOP-18 and with RXF 631 was > 100 µM (inactive) throughout. Also, the GI50 in the assay on DMS-273, in the assay on KM-20L2 and with DMS-114 was > 100 µM (inactive) each time.

Consider `Cc1cc2c(c(C(N)=O)c1C)-c1cccc(Cl)c1C2=O`, for which the GI50 with LXFL 529, in the assay with SNB-78, in the assay with XF498, in the assay with RXF 631, in the assay on DMS-273 and in the assay on KM-20L2 was > 100 µM (inactive) in each case. Further, in the assay with DMS-114, the GI50 is > 100 µM (inactive).

For the compound `CN(Cc1cnc2nc(N)nc(N)c2n1)c1ccc(C(=O)N[C@@H](CCC(=O)O)C(=O)O)cc1` [METHOTREXATE], the GI50 with M19-MEL is 0.424 µM (active); in the assay with LXFL 529, 0.0336 µM (active); in the assay with SNB-78, 117 µM (inactive); with XF498, 68.5 µM (inactive); with HOP-18 it was 15.9 µM (inactive); in the assay with DMS-273, 0.0308 µM (active). Further, the concentration for 50% growth inhibition (GI50) is 0.044 µM (active) with KM-20L2 and 0.0288 µM (active) in the assay on DMS-114.

(Values after ChEMBL document CHEMBL1201862, “PubChem BioAssay data set” (2004).)
